Test results: US11026875B2, “Skin restoration product” (Givaudan SA, priority 2016, dated 2021)

System: normal human dermal fibroblasts (NHFs)
Assay: N-sulfated GAG (heparan sulfate) synthesis (production + liberation) by normal human dermal fibroblasts
Assay type: cell-based
Settings: 72 h, cells pellets + supernatants, reported to total proteins, composition at 1 mM
Protocol: The composition was applied at 0.5 and 1 mM to normal human dermal fibroblasts (NHFs) over a period of 72 hours. Normal human fibroblasts (NHFs), were isolated from the skin dermis of Caucasian women donors (plastic surgery). Cells were seeded at 80 000 fibroblasts/well in 24-wells plates and were left to adhere for 24 hours at 37° C./5% CO2 in complete DMEM (Dulbecco's Modified Eagle Medium) (with antibiotics and FBS, fetal bovine serum).
The cells were then treated with the composition in non-supplemented medium (without FBS) for 72 hours and incubated at 37° C./5% CO2, and then total sGAG (sulfated Glycosaminoglycans) and HS (Heparan sulfate, or N-sulfated GAG) were dosed in culture supernatants and cells pellets (total proteins were dosed in cells pellets). Each product concentration was tested in duplicate. Furthermore, dosages were reported as a proportion of total amount of proteins. At the end of treatment, supernatants were collected. Cells were lysed in a papain containing buffer (Papaya latex Sigma P3125). Cells extracts were collected and centrifuged. Supernatants and cells pellets were dosed for sGAG, HS, or total proteins.
sGAG and HS dosage principles: Total sulfated GAG (sGAG), were dosed using the Blyscan™ sGAG Assay kit (Biocolor B1000 or B3000). The Blyscan™ assay is a quantitative dye-binding method for the analysis of sulfated proteoglycans and glycosaminoglycans (sGAG). The dye label used in the assay is 1,9-dimethylmethylene blue and the dye is employed under conditions that provide a specific label for the sulfated polysaccharide component of proteoglycans or the protein free sulfated glycosaminoglycan chains. The method consists of adding a specific blue dye reagent to an aliquot of supernatants or cells pellets which makes sGAG precipitate (a complex dye-sGAG is formed and precipitates out from the soluble unbound dye).
Centrifugation permitted the collection of a pellet of precipitate at the tube bottom. After having carefully drained the dye, the pellet was solubilized in a dissociation reagent (5-10% Sodium dodecyl sulphate). Absorbance was read at 656 nm in duplicate, in a 96-wells microplate. […] After this reaction, O-sGAG level can be measured using the protocol as normal, and N-sulfated content was subsequently calculated from the difference between the total sGAG value (determined earlier) and the O-sGAG content.
Total proteins dosage principle: Total proteins dosage in cells pellets was performed in parallel by colorimetric method based on bicinchoninic acid (BCA). […] The amount of reduction and of BCA-Cu^+ complex is proportional to the protein concentration present and is quantified by spectrophotometric lecture at 570 nm. […]

TGF beta: transforming growth factor beta, used as positive control
N-sulfated GAG synthesis improvement (donor one fibroblasts): +43% | N-sulfated GAG synthesis improvement (donor one fibroblasts, listed as TGFβ): +43% | N-sulfated GAG synthesis improvement (donor two fibroblasts): +24% | N-sulfated GAG synthesis improvement (donor two fibroblasts, listed as TGFβ): +24%
